# Measured values: BindingDB's records for doi:10.1016/j.ejmech.2023.115129 (n/a, 2023)
# Target: Replicase polyprotein 1ab (Severe acute respiratory syndrome coronavirus 2, UniProt P0DTD1)
# Assay: Inhibition of full-length recombinant SARS-CoV-2 3CL protease expressed in Escherichia coli BL21 (DE3) cells using fluorogenic MCA-AVLQSGFR-Lys (Dnp)-Lys-NH2 substrate preincubated for 10 mins followed by substrate addition measured for 3.5 mins by FRET assay
structure (smiles),measurement,value
C/N=c1\nc(-c2ccc(OC)c(OC)c2)n(-c2ccc(F)cc2)s1,IC50,252 nM
